Data from ChEMBL document CHEMBL5385964, “1,5-Disubstituted tetrazoles as PD-1/PD-L1 antagonists” (RSC Med Chem, 2024).
Activity calls are given as the source filed them. The calls are words filed in the database; no cut-off is given here.

target: Programmed cell death protein 1/Programmed cell death 1 ligand 1 (Homo sapiens, UniProt Q15116+Q9NZQ7); test: Antagonist activity at PD-1/PD-L1 interaction (unknown origin); type: protein-complex assay
Sequence (Q15116 whole entry): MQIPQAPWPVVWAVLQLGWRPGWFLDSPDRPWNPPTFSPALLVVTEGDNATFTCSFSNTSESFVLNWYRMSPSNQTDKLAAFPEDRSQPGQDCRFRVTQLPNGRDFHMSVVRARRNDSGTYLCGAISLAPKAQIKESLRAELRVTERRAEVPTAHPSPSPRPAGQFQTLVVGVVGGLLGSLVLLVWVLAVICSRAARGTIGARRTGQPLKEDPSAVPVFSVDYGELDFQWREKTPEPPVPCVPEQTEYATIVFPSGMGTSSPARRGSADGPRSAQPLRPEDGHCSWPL
Sequence (Q9NZQ7 whole entry): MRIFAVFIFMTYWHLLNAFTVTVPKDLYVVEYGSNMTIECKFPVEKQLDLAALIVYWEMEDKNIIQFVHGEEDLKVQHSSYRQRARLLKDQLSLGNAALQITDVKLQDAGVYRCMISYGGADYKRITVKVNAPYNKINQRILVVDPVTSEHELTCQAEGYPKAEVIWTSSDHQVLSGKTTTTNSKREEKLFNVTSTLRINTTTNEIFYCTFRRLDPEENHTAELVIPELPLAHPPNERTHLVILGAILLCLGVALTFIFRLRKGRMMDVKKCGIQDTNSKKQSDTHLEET

SMILES	IC50 [nM]
COCCNCc1ccc(C(F)(F)F)c(/C=C/c2cccc(-c3cccc(/C=C/c4cc(CN[C@@](C)(CO)C(=O)O)ccc4C(F)(F)F)c3C)c2Cl)c1	2.3
Cc1c(/C=C/c2cc(CN[C@@H](CO)C(=O)O)ccc2C(F)(F)F)cccc1-c1ccc2c(c1)OCCO2	13
COc1cc(/C=C2\CCc3c2cccc3-c2cccc3c2CC/C3=C\c2cc(CN[C@H](CO)C(=O)O)cc(OC)c2)cc(CN[C@@H](CO)C(=O)O)c1	2.9

target: Programmed cell death 1 ligand 1 (Homo sapiens) (UniProt Q9NZQ7); test: Induction of human PD-L1 dimerization at 1:1 molar ratio of protein:compound by 1H NMR analysis
Sequence (Q9NZQ7 whole entry): as above

SMILES	Activity
CCNCc1nnnn1/C=C/c1cccc(-c2ccccc2)c1C	Active
Cc1c(/C=C/n2nnnc2CN2CCCOC2)cccc1-c1ccccc1	Active
Cc1c(/C=C/n2nnnc2C(C)NCCCO)cccc1-c1ccc2c(c1)OCCO2 (stereo unspecified)	Active
